One compound from article PMC6383678 (Biochimica et biophysica acta. Biomembranes, 2019) can be followed below.

The experiment has as its target A2aR (hA2aR) (Homo sapiens, UniProt P29274). Description: flow cytometry, fluorescent agonist equilibrium binding to HEK293-A2aR cells. Format: cell-based.

Sequence of A2aR (hA2aR) (P29274 whole entry): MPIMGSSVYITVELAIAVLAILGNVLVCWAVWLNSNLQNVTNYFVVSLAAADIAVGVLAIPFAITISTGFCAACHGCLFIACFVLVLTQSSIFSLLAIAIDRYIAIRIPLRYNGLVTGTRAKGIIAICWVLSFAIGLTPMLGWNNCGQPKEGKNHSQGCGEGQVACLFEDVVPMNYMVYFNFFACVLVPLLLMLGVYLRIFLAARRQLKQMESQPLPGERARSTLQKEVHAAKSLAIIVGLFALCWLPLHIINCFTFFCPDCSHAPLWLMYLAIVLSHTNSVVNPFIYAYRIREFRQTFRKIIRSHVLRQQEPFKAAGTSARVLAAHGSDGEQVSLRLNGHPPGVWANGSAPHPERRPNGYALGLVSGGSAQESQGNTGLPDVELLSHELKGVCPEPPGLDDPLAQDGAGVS

Turning to `CCNC(=O)[C@H]1O[C@@H](n2cnc3c(N)nc(NCCc4ccc(CCC(=O)NCCNC(=S)Nc5ccc6c(c5)C(=O)OC65c6ccc(O)cc6Oc6cc(O)ccc65)cc4)nc32)[C@H](O)[C@@H]1O` [FITC-APEC], the equilibrium ligand binding result is listed as “equilibrium ligand binding of the fluorescent agonist APEC-FITC was unchanged following cholesterol depletion”.
